Where a SMILES comes first, the peptide text is derived from it. Bridges are numbered along the chain shown (N, C = ends).
Target: human α7-containing nAChRs (Homo sapiens, UniProt P36544)
Assay: cell-based
Type: cell-based
Conditions: SEM

Chain of human α7-containing nAChRs (P36544 23-502 limits assumed): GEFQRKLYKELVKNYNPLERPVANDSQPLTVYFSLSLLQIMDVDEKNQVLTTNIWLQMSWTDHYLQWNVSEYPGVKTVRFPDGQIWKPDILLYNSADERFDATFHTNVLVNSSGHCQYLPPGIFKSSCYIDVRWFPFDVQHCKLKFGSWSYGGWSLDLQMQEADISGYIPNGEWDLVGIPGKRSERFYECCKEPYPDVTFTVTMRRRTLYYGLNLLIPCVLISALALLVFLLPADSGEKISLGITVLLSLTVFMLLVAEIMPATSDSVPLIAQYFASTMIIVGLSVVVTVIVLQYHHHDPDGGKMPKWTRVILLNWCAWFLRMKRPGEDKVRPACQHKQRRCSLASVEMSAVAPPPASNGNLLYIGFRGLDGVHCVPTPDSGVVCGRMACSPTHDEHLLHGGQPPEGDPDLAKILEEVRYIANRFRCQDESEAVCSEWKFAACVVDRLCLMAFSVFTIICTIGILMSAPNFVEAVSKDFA

Structure (SMILES)	IC50 [µM]
CC(C)[C@H](NC(=O)[C@@H]1CSSC[C@@H]2NC(=O)[C@@H](NC(=O)[C@@H](N)CO)CSSC[C@H](NC(=O)[C@H](C)NC(=O)[C@@H]3CCCN3C(=O)[C@H](CC(N)=O)NC(=O)[C@H](CCCNC(=N)N)NC(=O)[C@H](C)NC2=O)C(=O)N[C@@H](CCCNC(=N)N)C(=O)N[C@@H](Cc2c[nH]cn2)C(=O)N[C@@H](CC(N)=O)C(=O)N[C@@H](Cc2c[nH]cn2)C(=O)N2CCC[C@H]2C(=O)N1)C(N)=O [gAusIA] (H-SCCARNPACRHNHPCV-NH2; disulfide 2-9, 3-15)	47 ± 6.7
CC[C@H](C)[C@@H]1NC(=O)[C@H](CC(N)=O)NC(=O)[C@@H]2CCCN2C(=O)[C@H](CC(N)=O)NC(=O)[C@H](CC(N)=O)NC(=O)[C@H](C(C)C)NC(=O)[C@H](CCCNC(=N)N)NC(=O)[C@@H]2CSSC[C@H](NC(=O)CNC(=O)[C@@H](N)CO)C(=O)N[C@@H](CSSC[C@@H](C(N)=O)NC1=O)C(=O)N[C@@H](CO)C(=O)N[C@@H](CC(N)=O)C(=O)N1CCC[C@H]1C(=O)N[C@@H](C)C(=O)N2 [gLsIA, reference compound] (H-SGCCSNPACRVNNPNIC-NH2; disulfide 3-9, 4-17)	0.3 ± 0.063
CC[C@H](C)[C@@H]1NC(=O)[C@@H]2CSSC[C@H](NC(=O)CN)C(=O)N[C@@H](CSSC[C@@H](C(N)=O)NC(=O)[C@H](CC(C)C)NC(=O)[C@H](CC(=O)O)NC(=O)[C@@H]3CCCN3C(=O)[C@H](CC(N)=O)NC(=O)[C@H](CC(N)=O)NC(=O)[C@H](CC(C)C)NC1=O)C(=O)N[C@@H](CO)C(=O)N[C@@H](CCCNC(=N)N)C(=O)N1CCC[C@H]1C(=O)N1CCC[C@H]1C(=O)N2 [gTxIA [A10L], reference compound] (H-GCCSRPPCILNNPDLC-NH2; disulfide 2-8, 3-16)	0.5 ± 0.036
CC[C@H](C)[C@@H]1NC(=O)[C@@H]2CSSC[C@H](NC(=O)CN)C(=O)N[C@@H](CSSC[C@@H](C(N)=O)NC(=O)[C@H](CC(C)C)NC(=O)[C@H](CC(=O)O)NC(=O)[C@@H]3CCCN3C(=O)[C@H](CC(N)=O)NC(=O)[C@H](CC(N)=O)NC(=O)[C@H](CC(C)C)NC1=O)C(=O)N[C@@H](CO)C(=O)N[C@@H](C)C(=O)N[C@@H](CCCNC(=N)N)C(=O)N1CCC[C@H]1C(=O)N1CCC[C@H]1C(=O)N2 [gTxIA[∇A5 A10L]] (H-GCCSARPPCILNNPDLC-NH2; disulfide 2-9, 3-17)	18 ± 4
CC(C)[C@H](NC(=O)[C@@H]1CSSC[C@H](NC(=O)[C@@H](N)CO)C(=O)N[C@H]2CSSC[C@H](NC(=O)[C@H](C)NC(=O)[C@@H]3CCCN3C(=O)[C@H](CC(N)=O)NC(=O)[C@H](CCCNC(=N)N)NC(=O)[C@H](C)NC2=O)C(=O)N[C@@H](CCCNC(=N)N)C(=O)N[C@@H](Cc2c[nH]cn2)C(=O)N[C@@H](CC(N)=O)C(=O)N[C@@H](Cc2c[nH]cn2)C(=O)N2CCC[C@H]2C(=O)N1)C(N)=O [rAusIA] (H-SCCARNPACRHNHPCV-NH2; disulfide 2-15, 3-9)	26 ± 5
CC[C@H](C)[C@@H]1NC(=O)[C@H](CC(N)=O)NC(=O)[C@@H]2CCCN2C(=O)[C@H](CC(N)=O)NC(=O)[C@H](CC(N)=O)NC(=O)[C@H](C(C)C)NC(=O)[C@H](CCCNC(=N)N)NC(=O)[C@@H]2CSSC[C@H](NC(=O)[C@@H](NC(=O)CNC(=O)[C@@H](N)CO)CSSC[C@@H](C(N)=O)NC1=O)C(=O)N[C@@H](CO)C(=O)N[C@@H](CC(N)=O)C(=O)N1CCC[C@H]1C(=O)N[C@@H](C)C(=O)N2 [rLsIA, reference compound] (H-SGCCSNPACRVNNPNIC-NH2; disulfide 3-17, 4-9)	41 ± 3.4
CC[C@H](C)[C@@H]1NC(=O)[C@@H]2CSSC[C@H](NC(=O)[C@@H](NC(=O)CN)CSSC[C@@H](C(N)=O)NC(=O)[C@H](CC(C)C)NC(=O)[C@H](CC(=O)O)NC(=O)[C@@H]3CCCN3C(=O)[C@H](CC(N)=O)NC(=O)[C@H](CC(N)=O)NC(=O)[C@H](CC(C)C)NC1=O)C(=O)N[C@@H](CO)C(=O)N[C@@H](CCCNC(=N)N)C(=O)N1CCC[C@H]1C(=O)N1CCC[C@H]1C(=O)N2 [rTxIA [A10L], reference compound] (H-GCCSRPPCILNNPDLC-NH2; disulfide 2-16, 3-8)	6 ± 0.123
CC[C@H](C)[C@@H]1NC(=O)[C@@H]2CSSC[C@H](NC(=O)[C@@H](NC(=O)CN)CSSC[C@@H](C(N)=O)NC(=O)[C@H](CC(C)C)NC(=O)[C@H](CC(=O)O)NC(=O)[C@@H]3CCCN3C(=O)[C@H](CC(N)=O)NC(=O)[C@H](CC(N)=O)NC(=O)[C@H](CC(C)C)NC1=O)C(=O)N[C@@H](CO)C(=O)N[C@@H](C)C(=O)N[C@@H](CCCNC(=N)N)C(=O)N1CCC[C@H]1C(=O)N1CCC[C@H]1C(=O)N2 [rTxIA[∇A5 A10L]] (H-GCCSARPPCILNNPDLC-NH2; disulfide 2-17, 3-9)	39 ± 10.3

From article PMC8578332 (Scientific Reports, 2021)
